Test [1] deals with T1, CHIKV Mac (Chikungunya virus, UniProt Q8JUX6). Nature of the test: biochemical. The class given is binding.
For test [2], the target named is T2, SARS-CoV-2 Mac1 (Severe acute respiratory syndrome coronavirus 2, UniProt P0DTD1). The experiment in a line: biochemical. The class given is binding. The settings on record: for koff: read-out: kdis.
The target of test [3] is T2, SARS-CoV-2 Mac1. The experiment in a line: biochemical. The class given is binding.
For test [4], the target named is T3, MERS-CoV Mac1 (Middle East respiratory syndrome-related coronavirus, UniProt K9N7C7). Nature of the test: biochemical. The class given is binding.
T3 sequence (K9N7C7 1110-1276 limits assumed): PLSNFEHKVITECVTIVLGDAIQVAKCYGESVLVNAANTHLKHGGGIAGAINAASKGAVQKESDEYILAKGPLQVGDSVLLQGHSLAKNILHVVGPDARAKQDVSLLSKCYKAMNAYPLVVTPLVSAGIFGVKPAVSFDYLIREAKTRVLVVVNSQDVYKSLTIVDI
The target in test [5] is T1, CHIKV Mac. The experiment in a line: biochemical. The class given is binding. The settings on record: for koff: read-out: kdis.
For test [6], the target named is T3, MERS-CoV Mac1. The experiment in a line: biochemical. The class given is binding. The settings on record: for koff: read-out: kdis.
Test [7] addresses T4, VEEV Mac (Venezuelan equine encephalitis virus, UniProt P27282). The experiment in a line: biochemical. The class given is binding. Conditions: for koff: read-out: kdis.
The next test concerns the target T5, MacroD1 (Homo sapiens, UniProt Q9BQ69).
T5 construct: made in house
T5 sequence (Q9BQ69 1-325): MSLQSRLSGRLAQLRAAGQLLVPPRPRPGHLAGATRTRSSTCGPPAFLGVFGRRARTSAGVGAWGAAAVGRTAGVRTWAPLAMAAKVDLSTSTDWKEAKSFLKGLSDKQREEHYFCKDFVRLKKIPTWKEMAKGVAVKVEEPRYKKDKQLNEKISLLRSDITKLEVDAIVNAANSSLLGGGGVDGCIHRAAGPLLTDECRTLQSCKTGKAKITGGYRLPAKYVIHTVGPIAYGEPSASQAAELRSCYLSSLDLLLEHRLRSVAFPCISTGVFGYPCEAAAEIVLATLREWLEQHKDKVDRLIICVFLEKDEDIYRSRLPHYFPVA
The experiment in a line: IC50 curves of binding to MacroD1 (Figure S2). The settings on record: Figure S2, fitted.

The target in a further test is T6, MacroD2 (Homo sapiens, UniProt A1Z1Q3).
T6 construct: made in house
T6 sequence (A1Z1Q3 1-425): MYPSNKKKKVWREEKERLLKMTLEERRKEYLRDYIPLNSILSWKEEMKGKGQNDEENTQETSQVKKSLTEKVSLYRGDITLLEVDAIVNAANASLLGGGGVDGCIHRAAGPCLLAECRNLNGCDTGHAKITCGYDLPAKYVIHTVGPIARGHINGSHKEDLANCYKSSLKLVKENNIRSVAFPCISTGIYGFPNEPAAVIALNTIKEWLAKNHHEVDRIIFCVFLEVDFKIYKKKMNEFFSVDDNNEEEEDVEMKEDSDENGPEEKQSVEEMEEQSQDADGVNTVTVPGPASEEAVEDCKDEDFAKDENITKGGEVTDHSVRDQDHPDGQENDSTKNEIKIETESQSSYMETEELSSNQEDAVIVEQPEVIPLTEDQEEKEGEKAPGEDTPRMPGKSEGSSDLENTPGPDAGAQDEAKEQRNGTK
The experiment in a line: IC50 curves of binding to MacroD2 (Figure S2). Conditions: Figure S2, fitted.

Test [8] concerns the target T4, VEEV Mac. Nature of the test: biochemical. The class given is binding.
In test [9] the target is T2, SARS-CoV-2 Mac1. Conditions: cited from earlier work.
Test [10] concerns the target T3, MERS-CoV Mac1. Nature of the test: biochemical. The class given is binding. This is another data set of the same source.
Test [11] has as its target T2, SARS-CoV-2 Mac1. Nature of the test: biochemical. The class given is binding. The source holds these as a separate data set.
Test [12] concerns the target T1, CHIKV Mac. The experiment in a line: biochemical. The class given is binding. The settings on record: Kd.
For test [13], the target named is T4, VEEV Mac. The experiment in a line: biochemical. The class given is binding. This is another data set of the same source.

Where “and” joins values, the source holds several entries; their conditions need not be identical. Equal values may be shown once. Read-outs that look alike come from different tables or passages of the source.

T1 sequence (Q8JUX6 1334-1493 limits assumed): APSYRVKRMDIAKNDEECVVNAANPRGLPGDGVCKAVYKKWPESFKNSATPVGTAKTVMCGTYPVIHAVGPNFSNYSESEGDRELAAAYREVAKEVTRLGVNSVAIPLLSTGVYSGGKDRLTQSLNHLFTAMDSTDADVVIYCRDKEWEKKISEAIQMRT
T4 sequence (P27282 1330-1489 limits assumed): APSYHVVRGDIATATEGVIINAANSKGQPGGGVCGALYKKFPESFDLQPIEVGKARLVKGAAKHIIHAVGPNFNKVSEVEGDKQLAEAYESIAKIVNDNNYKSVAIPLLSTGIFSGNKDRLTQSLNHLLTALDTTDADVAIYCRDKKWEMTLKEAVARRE

Consider `Nc1ncnc2c1ncn2[C@@H]1O[C@H](COP(=O)(O)OP(=O)(O)OC[C@H]2O[C@H](n3cc(COCCOCCOCCOCCNC(=O)CCCC[C@@H]4SC[C@@H]5NC(=O)N[C@@H]54)nn3)[C@H](O)[C@@H]2O)[C@@H](O)[C@H]1O` [biotin-ADPr], for which the IC50 – broadly, the concentration needed to halve the response being measured – stood at 22.2 µM against CHIKV Mac [1], 3.5 µM at SARS-CoV-2 Mac1 [3] and 6.8 µM against MERS-CoV Mac1 [4]. The Kd (usually the constant that tells how readily two partners part at equilibrium) was 19.6 µM on SARS-CoV-2 Mac1 [2], 5.3 ± 0.2 µM on CHIKV Mac [5] and 2.1 ± 0.1 µM on MERS-CoV Mac1 [6]. In addition, the kon (in general, the rate constant with which the complex forms) on SARS-CoV-2 Mac1 [2] turned out to be 53000 ± 3000 M⁻¹ s⁻¹; at CHIKV Mac [5], 120000 ± 3000 M⁻¹ s⁻¹; at MERS-CoV Mac1 [6], 320000 ± 10000 M⁻¹ s⁻¹; on VEEV Mac [7], 140000 ± 8000 M⁻¹ s⁻¹. The koff was 1 ± 0.05 s⁻¹ at SARS-CoV-2 Mac1 [2], 0.65 ± 0.02 s⁻¹ at CHIKV Mac [5], 0.7 ± 0.03 s⁻¹ on MERS-CoV Mac1 [6] and 0.79 ± 0.04 s⁻¹ on VEEV Mac [7].

For `N#C[C@@]1(c2ccc3c(N)ncnn23)O[C@H](COP(=O)(O)OP(=O)(O)OC[C@H]2O[C@H](n3cc(COCCOCCOCCOCCNC(=O)CCCC[C@@H]4SC[C@@H]5NC(=O)N[C@@H]54)nn3)[C@H](O)[C@@H]2O)[C@@H](O)[C@H]1O` [biotin-NDPr], the figures for the IC50 at CHIKV Mac [1], on SARS-CoV-2 Mac1 [3] and against MERS-CoV Mac1 [4] were 0.95 µM, 0.057 µM and 1.2 µM, respectively. Further, the Kd on SARS-CoV-2 Mac1 [2] was 0.28 ± 0.01 µM; at CHIKV Mac [5] it was 0.331 µM and 0.33 µM; at MERS-CoV Mac1 [6], 0.21 ± 0.01 µM. Moreover, at SARS-CoV-2 Mac1 [2], the “fold more potent than biotin-ADPr based on Kd” value is given as approximately 70 fold. Further, the kon is 310000 ± 5000 M⁻¹ s⁻¹ at SARS-CoV-2 Mac1 [2], 180000 ± 4000 M⁻¹ s⁻¹ on CHIKV Mac [5], 1.3e+06 ± 50000 M⁻¹ s⁻¹ at MERS-CoV Mac1 [6] and 580000 ± 6000 M⁻¹ s⁻¹ at VEEV Mac [7]. Further, the koff at SARS-CoV-2 Mac1 [2] was 0.085 ± 0.001 s⁻¹; on CHIKV Mac [5], 0.06 ± 0.0009 s⁻¹; at MERS-CoV Mac1 [6], 0.27 ± 0.01 s⁻¹; at VEEV Mac [7], 0.076 ± 0.0008 s⁻¹. The “fold stronger than biotin-ADPr” value on CHIKV Mac [5] was approximately 15 fold.

In the case of `N#CC1(c2ccc3c(N)ncnn23)OC(COP(=O)(O)OP(=O)(O)OCC2OC(O)C(O)C2O)C(O)C1O` (stereo not drawn) [NDPr], the 50% inhibitory concentration (IC50) on MacroD1 is more than 10 µM; at MacroD2, more than 10 µM; at CHIKV Mac [1], 0.92 µM; on SARS-CoV-2 Mac1 [3] it was 0.8 µM and 0.17 µM and 0.29 µM; against MERS-CoV Mac1 [4] it was 2.9 µM; against VEEV Mac [8] it was 0.51 µM.

As for `Nc1ncnc2c1ncn2C1OC(COP(=O)(O)OP(=O)(O)OCC2OC(Oc3ccc4c(C(F)(F)F)cc(=O)oc4c3)C(O)C2O)C(O)C1O` (stereo not drawn) [TFMU-ADPr], at SARS-CoV-2 Mac1 [9], the IC50 was 0.59 µM and the “fold more potent than ADPr” value was more than 20 fold.

On CHIKV Mac [1], `N#C[C@@]1(c2ccc3c(N)ncnn23)O[C@H](COP(=O)(O)OP(=O)(O)OC[C@H]2O[C@H](Oc3ccccc3)[C@H](O)[C@@H]2O)[C@@H](O)[C@H]1O` [Ph-NDPr] gave an IC50 of 9.3 µM. Also, on SARS-CoV-2 Mac1 [3], the “fold better IC50 than ADPr” value is given as 6000 fold, the “fold better IC50 than NDPr” value was found to be 100 fold and the “fold better IC50 than Ph-ADPr” value is on record as 500 fold. The molecule further displayed an IC50 at MERS-CoV Mac1 [4] of 0.46 µM. This molecule also came in with an IC50 at VEEV Mac [8] of 0.22 µM.

As for `CN(C)c1ccc2c(c1)Oc1cc(N(C)C)ccc1C21OC(=O)c2cc(C(=O)NCCCCCCNC(=O)CCc3cn([C@H]4O[C@H](COP(=O)(O)OP(=O)(O)OC[C@H]5O[C@@H](n6cnc7c(N)ncnc76)[C@H](O)[C@@H]5O)[C@@H](O)[C@H]4O)nn3)ccc21` [TAMRA-ADPr, reference compound], the dissociation constant Kd on MERS-CoV Mac1 [10] was 0.83 µM; on SARS-CoV-2 Mac1 [11] (Kd), 2.1 µM; at CHIKV Mac [12] it was 7.2 µM; on VEEV Mac [13], 1.7 µM.

With `CN(C)c1ccc2c(c1)Oc1cc(N(C)C)ccc1C21OC(=O)c2cc(C(=O)NCCCCCCNC(=O)CCc3cn(Cc4ccc(O[C@H]5O[C@H](COP(=O)(O)OP(=O)(O)OC[C@H]6O[C@@](C#N)(c7ccc8c(N)ncnn78)[C@H](O)[C@@H]6O)[C@@H](O)[C@H]5O)cc4)nn3)ccc21` [TAMRA-Ph-NDPr], the Kd on MERS-CoV Mac1 [10] was 0.011 µM; at SARS-CoV-2 Mac1 [11] (Calculated Kd), 0.0023 µM; on SARS-CoV-2 Mac1 [11] (Kd) it was 0.0053 µM; at CHIKV Mac [12], 0.81 µM; on VEEV Mac [13], 0.01 µM. Further, the “fold more potent than TAMRA-ADPr” value on SARS-CoV-2 Mac1 [11] is “over 100 fold”.

(Values after paper PMC11106745 (ACS Chemical Biology, 2024).)
